From paper PMC6669322, “Small Molecule Binding to Alzheimer Risk Factor CD33 Promotes Aβ Phagocytosis” (iScience, 2019)

Columns and labels:
[1] = test system: human CD33-transfected BV2 cells; assay: Aβ42 phagocytosis assay (Aβ42 pHrodo uptake); format: cell-based, murine; settings: cells pre-treated with millimolar concentration of the ligand, in words
Description: (§1) Having shown that P22 binds specifically to the sialic acid-binding site of this domain we now have a chemical tool to answer the question of whether the sialic acid-binding site is the appropriate target for small molecule ligands that might promote Aβ uptake. Siglecs preferentially recognize multivalent presentation of their ligands ([Rillahan et al., 2014], [Büll et al., 2016]), and for this reason we conjugated the biotinylated form of P22 to microparticles labeled with both FITC and streptavidin (P22 microparticles) (see Transparent Methods). More than 60% CD33-transfected BV2 cells were positive for P22 microparticles compared with only 30% cells that were only incubated with control particles (unconjugated to P22) (Figure 4A). Although some P22 microparticles also bind to non-transfected cells, the difference remains significant for the cells transfected with CD33. This led us to believe that the compound bound preferentially to CD33 (Figure 4A). […]
(§2) Figure 4 Effect of P22 on Phagocytosis The cells were treated with P22 conjugated to microparticles labeled with both streptavidin and fluorescein isothiocyanate (FITC), or with microparticles without P22 conjugated as control. […] (C) Quantification of phagocytic differentiated human THP-1 cells after incubation with P22 monomer, P22 conjugated microparticles, or microparticles without P22 conjugation. […]

CD33 = test system: CD33; parameters: method as in Blixt et al., 2003; settings: order of magnitude in words; ref Blixt et al., 2003; cited from earlier work
[2] = test system: differentiated THP-1 cells; assay: THP-1 phagocytosis assay (pHrodo E. coli BioParticles), wild-type cells; format: cell-based, human; settings: co-treatment, all treatment groups, in words
Description: as §1, with “4A).” for “4A). Although some P22 microparticles also bind to non-transfected cells, the difference remains significant for the cells transfected with CD33. This led us to believe that the compound bound preferentially to CD33 (Figure 4A).”
as §2
THP-1 cells (control and CD33KO) were differentiated in growth media (RPMI 1640, 10% FCS) supplemented with 100 ng/mL PMA for 3 days. […] Differentiated cells were then lifted, counted and 75,000 cells/well were plated in a 96 well plate. […]

Structure (SMILES): CC(=O)N[C@H]1[C@H]([C@H](O)[C@H](O)CO)O[C@@](O[C@H]2[C@@H](O)[C@@H](CO)O[C@@H](O[C@H]3[C@H](O)[C@@H](O)C(O)O[C@@H]3CO)[C@@H]2O)(C(=O)O)C[C@@H]1O (stereo partly drawn) [3′-sialyllactose]
- effect on phagocytosis [1]: no difference
- affinity for CD33 (CD33): millimolar

Structure (SMILES): C=C1[C@@H](C)[C@H]2[C@H](Cc3ccccc3)NC(=O)[C@]23[C@H](OC(C)=O)/C=C/[C@@](C)(O)C(=O)[C@@H](C)C/C=C/[C@H]3[C@@H]1O [cytochalasin D]
- effect of co-treatment on phagocytosis [2]: blocked phagocytosis
